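Compound exposure: 48 hours, 5 concentrations, 96-well plates. Abbreviation: GI50, concentration required for 50% inhibition of growth. At the TGI there is no net growth.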
Experiments:
Assay in all cases: inhibition of tumour cell growth, NCI panel, 48 h
[1] = test system: SK-MEL-5 melanoma
[2] = test system: T-47D breast
[3] = test system: CCRF-CEM leukemia
[4] = test system: SK-MEL-28 melanoma
[5] = test system: HOP-92 NSCLC
[6] = test system: SF-295 CNS
[7] = test system: HCT-15 colon
[8] = test system: UO-31 renal
[9] = test system: SK-MEL-2 melanoma
[10] = test system: SR leukemia
[11] = test system: U251 CNS
[12] = test system: COLO 205 colon
[13] = test system: NCI-H226 lung
[14] = test system: ACHN renal
[15] = test system: CAKI-1 renal
[16] = test system: SF-268 CNS
[17] = test system: HL-60(TB) leukemia
[18] = test system: RPMI-8226 leukemia
[19] = test system: MDA-MB-435
[20] = test system: MDA-MB-231 breast
[21] = test system: OVCAR-4 ovarian
[22] = test system: EKVX NSCLC
[23] = test system: HS 578T breast
[24] = test system: UACC-257 melanoma
[25] = test system: A549 NSCLC
[26] = test system: HOP-62 NSCLC
[27] = test system: SK-OV-3 ovarian
[28] = test system: RXF 393 renal
[29] = test system: NCI-H23 lung

O=c1c2c3c(sc2n2c(-c4cc(-c5ccccc5)no4)nnc2n1Cc1ccccc1)CCCC3
GI50 [1]: 9.77 µM | TGI [1]: 22.9 µM | GI50 [2]: 3.55 µM | TGI [2]: 22.1 µM | GI50 [3]: 3.22 µM | TGI [3]: > 37.7 µM | GI50 [4]: 22.9 µM | TGI [4]: 76 µM | GI50 [5]: 6.66 µM | TGI [5]: > 100 µM | GI50 [6]: 6.53 µM | TGI [6]: 31.7 µM | GI50 [7]: 11.6 µM | TGI [7]: > 83.4 µM | GI50 [8]: 27.1 µM | TGI [8]: > 100 µM | GI50 [9]: 4 µM | TGI [9]: 23.5 µM | GI50 [10]: 4.94 µM | TGI [10]: > 42 µM | GI50 [11]: 17.3 µM | TGI [11]: > 100 µM | GI50 [12]: 1.23 µM | TGI [12]: > 40.7 µM | GI50 [13]: 20 µM | TGI [13]: 58.3 µM | GI50 [14]: 9.32 µM | TGI [14]: > 100 µM | GI50 [15]: 10.2 µM | TGI [15]: 61.5 µM | GI50 [16]: 15.6 µM | TGI [16]: 68.3 µM | GI50 [17]: 4.65 µM | TGI [17]: 29.9 µM | GI50 [18]: 4.23 µM | TGI [18]: > 48.8 µM | GI50 [19]: 24.1 µM | TGI [19]: > 91.9 µM | GI50 [20]: 4.94 µM | TGI [20]: 55.2 µM | GI50 [21]: 19.2 µM | TGI [21]: > 100 µM | GI50 [22]: 8.63 µM | TGI [22]: > 67.6 µM | GI50 [23]: 18.7 µM | TGI [23]: > 94.7 µM | GI50 [24]: 23.9 µM | TGI [24]: > 74 µM | GI50 [25]: 10.5 µM | TGI [25]: > 86.5 µM | GI50 [26]: 14.8 µM | TGI [26]: 57 µM | GI50 [27]: 38.4 µM | TGI [27]: > 100 µM | GI50 [28]: 4.13 µM | TGI [28]: 26.7 µM | GI50 [29]: 36.6 µM | TGI [29]: > 100 µM

— PubChem BioAssay (NCI)
